Assay results published in a compilation of properties of binary mixtures (doi:10.1039/c8ra04127j).

Experiment: xn = mol fraction of the nth substance listed
Conditions: 100 kPa

C[N+](C)(C)CCC[N+]1(C)CCCCC1.N#C[N-]C#N.N#C[N-]C#N + CC#N
viscosity [mPa·s]
Conditions | 288.15 K | 293.15 K | 298.15 K | 303.15 K | 308.15 K | 313.15 K | 318.15 K | 323.15 K | 328.15 K | 333.15 K
x1 = 0.0999 | 3.99 | – | 3.42 | 3.18 | – | 2.81 | – | 2.54 | 2.43 | 2.32
x1 = 0.2001 | 17.4 | 15.1 | 13.2 | 11.6 | 10.3 | – | – | 7.49 | – | 6.16
x1 = 0.3001 | 56.9 | 45.9 | – | 31.4 | – | 22.7 | 19.6 | – | 15.4 | 13.7
x1 = 0.3998 | 146 | 112 | 87.3 | – | – | 46.6 | 39.3 | 33.3 | 28.6 | 24.8
x1 = 0.5002 | 334 | 243 | – | 139 | – | 87 | – | 58.2 | – | –
x1 = 0.6 | 679 | 466 | 322 | 246 | 185 | 145 | 114 | – | – | 62.3
x1 = 0.7001 | 1177 | 729 | 508 | 370 | 274 | 210 | – | – | 105 | 85.5
x1 = 0.7996 | – | 1390 | 900 | 623 | 449 | 329 | 246 | 193 | 152 | 122
x1 = 0.8998 | 3992 | 2477 | 1610 | 1085 | 760 | – | 400 | 303 | 233 | –
x1 = 1 | 7553 | – | – | 1837 | 1224 | 856 | – | 460 | 350 | 270

C[N+](C)(C)CCC[n+]1ccccc1.N#C[N-]C#N.N#C[N-]C#N + CC#N
viscosity [mPa·s]
Conditions | x1 = 0.0999 | x1 = 0.1999 | x1 = 0.2998 | x1 = 0.3997 | x1 = 0.4999 | x1 = 0.6002 | x1 = 0.7001 | x1 = 0.7998 | x1 = 0.8997 | x1 = 1
283.15 K | 4.14 | 14.2 | 52.8 | 131 | 245 | 474 | – | 1385 | 2375 | 7557
288.15 K | 3.75 | 12.3 | 42.2 | 98 | 175 | 321 | 554 | 848 | – | –
293.15 K | 3.45 | – | 34.5 | – | 129 | 226 | 371 | 562 | 850 | –
298.15 K | 3.21 | 9.55 | 28.7 | 59.8 | 98 | 166 | 264 | 382 | – | 1306
303.15 K | – | 8.55 | – | 48.3 | 76.3 | 125 | 192 | – | 392 | 831
308.15 K | 2.83 | – | 21 | 39.6 | 61.3 | 96.7 | 146 | 200 | 286 | 558
313.15 K | 2.67 | 7.03 | 18.2 | 33.3 | 50 | 76.6 | 109 | 145 | 213 | 386
318.15 K | 2.54 | 6.43 | – | 28.2 | 43.5 | 63.9 | 89.7 | 118 | 161 | 281
323.15 K | – | 5.91 | 14.1 | 24.2 | 36.7 | 51.7 | 70.9 | 91.6 | 123 | –
328.15 K | 2.32 | 5.47 | 12.5 | 21 | 30.6 | 43.3 | 57.6 | 73.2 | 95.6 | 162
333.15 K | 2.23 | – | 11.2 | 18.4 | 27.6 | – | 48.5 | 60.3 | 75.3 | 127

CC#N + C[N+](C)(C)CCC[N+]1(C)CCCCC1.N#C[N-]C#N.N#C[N-]C#N
x2 = 0
Conditions | viscosity [mPa·s]
293.15 K | 0.364
308.15 K | 0.32
313.15 K | 0.307
318.15 K | 0.296
323.15 K | 0.285
328.15 K | 0.275

CC#N + C[N+](C)(C)CCC[n+]1ccccc1.N#C[N-]C#N.N#C[N-]C#N
x2 = 0
Conditions | viscosity [mPa·s]
283.15 K | 0.401
288.15 K | 0.382
293.15 K | 0.364
298.15 K | 0.348
303.15 K | 0.333
308.15 K | 0.32
313.15 K | 0.307
318.15 K | 0.296
323.15 K | 0.285
